The test system of this assay is all tested Gardnerella strains. The assay can be described thus: MIC and MBC microbroth dilution, stated over all tested strains. The settings on record: for MIC: Gardnerella. It is filed as cell-based. The protocol: One of the main deficiencies in the treatment of BV is the high rate of recurrence in many women, which leads to repeated administration of antibiotics and concomitant destabilization of the microbiome and other side effects. The minimal inhibitory concentration (MIC) and minimal bactericidal concentration (MBC) on Gardnerella cells of the strains also used for the endolysin activity assays were then measured using the method described in Reference Example 6 and 7. […] Essentially, Gardnerella suspensions at 2.5×10^7 CFU/ml were incubated with the concentration of antibiotics as indicated and incubated for 48 h at 37° C. under anaerobic conditions. […] OD(610) was measured at the beginning and the end of the experiment. At the end of the experiment, 2 ul of each reaction mix was spotted on agar to determine the MBC.
The conditions under which MIC and MBC were measured are more rigorous than the standard.
Example 7—Activity assays of a representative (H2B10) of domain swapped endolysins on the growth in suspension of different Gardnerella strains. […] The conditions under which MBC was measured are more rigorous than the standard. […] In general, it is known, that antibiotics only insufficiently eradicate the Gardnerella biofilm, a hallmark of BV, which is one suspected reason for the reported very high recurrence rate of BV. Despite leaving residual viable biofilm, antibiotics wipe parts of the beneficial organisms of the vaginal microbiome which then opens an ecological niche for other pathogens, e.g. fungi.
Bacteria were plated from cryo stock on BD Choc Agar plates (Gardnerella) and incubated at 37° C. for 48 h under anaerobic conditions. Colonies were scraped from the plate, resuspended in Hardy Broth or NYC-III-HS-pH 5.0, and the suspension adjusted to OD (610 or 620 nm as indicated) 0.05. It has to be noted that two Tecan Microplate readers, having respectively a 610 nm or 620 nm filter, have been used interchangeably in the experiments. Although it doesn't make any difference for the experiments, the exact wavelength used is specified in each example. Antibiotics were prepared as 20× stocks for each of the required final concentrations. […] OD (610-620 as indicated) at the start of the reaction was measured, then the plate was incubated at 37° C. for 48 h under anaerobic conditions. After that, the OD (610-620 as indicated) was measured again for MIC determination, where MIC was defined as the lowest concentration of antibiotic where the OD (610-620 as indicated) was not above the level measured at the beginning of the experiment. […] After incubation, cell growth on each spot was evaluated, and the MBC defined as the lowest concentration of antibiotics where no bacteria grew on the plate.
A general note: In broth dilution the organism is exposed to a series of concentrations in liquid medium.

≈ marks a conversion by molar mass, not a printed value. Read-outs that look alike come from different tables or passages of the source.

For the molecule `Cc1ncc([N+](=O)[O-])n1CCO` [Metronidazole], the MIC fell in the range of 64 to 128 µg/mL (≈ 374 to 748 µM) (48 h, first round: […]10^7 CFU/ml, 48 h anaerobic (FIG. 14), read-out: MIC over all Gardnerella strains) and 8 to 128 µg/mL (≈ 46.7 to 748 µM) (second round: 1×10^5-1×10^6 CFU/ml (FIG. 15), read-out: MIC over all tested Gardnerella strains). Where the note is “MIC microbroth dilution”, the “susceptibility of the Gardnerella strains, in words” value is recorded as “resistant”.

As a reminder, the MIC is the lowest concentration found to suppress growth.

Source of the values: patent US20220315908A1, “NOVEL GARDNERELLA ENDOLYSINS AND USES THEREOF” (priority 2019, published 2022).
